How the values were obtained:
[1] = target: TEAD4 (Homo sapiens, UniProt Q15561); test: Thermal shift assay TEAD4; type: binding
Procedure, shortened: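 Protein thermal shift with TEAD4 at 0.1 mg/ml final, Protein Thermal Shift dye, compounds at 10 μM or 1 μM in PBS with 0.1% DMSO final. Melt reactions assembled on ice and run on a qPCR instrument.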

[2] = test system: NCI-H226 cells; test: Cell growth assay (CellTiter-Glo); type: cell-based, human; conditions: Homo sapiens, NCI-H226, 168 h, 7 days treatment, CellTiter-Glo luminescence, read-out: H226 CTG IC50
Procedure: Example A: Cell Growth Assay
CellTiter-Glo reagent (CTG reagent, Promega, G7573).
[…] Also seeding an extra plate as Day 0 control measurement. The microplates were incubated at 37° C., 5% CO2 overnight.
Compounds were 3-fold serial diluted in DMSO and final top-concentration was […], 10 points. 0.3% DMSO as vehicle control. In addition, […] of CTG reagent was added into the extra plate and incubated at room temperature for 30 minutes and detected luminescence signals as Day 0 control by using EnVision (PerkinElmer, 2104 Mutilabel Reader).
Incubated other compounds treated plates at 37° C. for another 7 days and […] of CTG reagent was added into the plates and incubated at room temperature for 30 minutes and detected luminescence signals.
Day 0 luminescence signals were used as negative control or baseline. • Signalday0=average luminescence signals of Day 0 control cells. • Signalblank control=average luminescence signals of blank control. • SignalDMSO vehicle control=average luminescence signals of Day 7 DMSO vehicle control cells. • Signalcpds treatment=luminescence signals of Day 7 compounds treatment cells. Inhibition %=1−(Signalcpds treatment−Signalblank control)/(SignalDMSO vehicle control−Signalblank control)*100.
(Inhibitory concentration 50% (IC50) and maximum inhibition % were calculated using dose response curves.

[3] = target: TEAD3 (Homo sapiens, UniProt Q99594); test: Thermal shift assay TEAD3; type: binding
Procedure, shortened: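 TEAD3 protein at 0.1 mg/ml final melted with Protein Thermal Shift dye on a qPCR instrument. Compounds tested at 10 μM and 1 μM in PBS, final DMSO 0.1%.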

[4] = target: TEAD2 (Homo sapiens, UniProt Q15562); test: Thermal shift assay TEAD2; type: binding
Procedure, shortened: (§1)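 Compounds tested at 10 μM and 1 μM, 0.1% DMSO final, with TEAD1 at 0.2 mg/ml or TEAD2 at 0.08 mg/ml final. Melting monitored with Protein Thermal Shift dye on a qPCR instrument.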

[5] = target: TEAD1 (Homo sapiens, UniProt P28347); test: Thermal shift assay TEAD1; type: binding
Procedure, shortened: as §1

TEAD2, sequence (Q15562 whole entry, species assumed): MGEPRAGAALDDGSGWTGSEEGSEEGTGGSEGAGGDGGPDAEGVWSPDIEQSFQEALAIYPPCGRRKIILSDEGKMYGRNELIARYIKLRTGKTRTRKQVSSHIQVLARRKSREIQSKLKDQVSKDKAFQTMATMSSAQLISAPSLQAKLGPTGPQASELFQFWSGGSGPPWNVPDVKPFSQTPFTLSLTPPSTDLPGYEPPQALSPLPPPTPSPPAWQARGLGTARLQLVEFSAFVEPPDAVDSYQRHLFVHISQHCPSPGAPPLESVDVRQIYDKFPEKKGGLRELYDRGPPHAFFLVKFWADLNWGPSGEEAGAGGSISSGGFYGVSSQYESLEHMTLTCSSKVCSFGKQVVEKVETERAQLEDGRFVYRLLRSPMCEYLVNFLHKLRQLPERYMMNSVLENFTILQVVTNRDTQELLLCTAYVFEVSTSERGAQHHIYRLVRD
TEAD3, sequence (Q99594 whole entry, species assumed): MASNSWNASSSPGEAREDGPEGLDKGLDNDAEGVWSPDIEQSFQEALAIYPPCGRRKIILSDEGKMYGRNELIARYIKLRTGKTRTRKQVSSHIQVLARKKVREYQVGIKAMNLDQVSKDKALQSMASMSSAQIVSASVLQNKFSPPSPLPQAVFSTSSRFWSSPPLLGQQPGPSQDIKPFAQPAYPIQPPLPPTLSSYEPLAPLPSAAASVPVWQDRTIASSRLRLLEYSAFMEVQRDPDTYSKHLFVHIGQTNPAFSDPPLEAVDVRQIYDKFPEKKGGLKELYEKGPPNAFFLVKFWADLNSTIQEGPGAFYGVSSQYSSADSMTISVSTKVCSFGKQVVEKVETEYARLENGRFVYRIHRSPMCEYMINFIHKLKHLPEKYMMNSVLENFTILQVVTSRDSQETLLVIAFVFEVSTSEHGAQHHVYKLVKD
TEAD4, sequence (Q15561 whole entry, species assumed): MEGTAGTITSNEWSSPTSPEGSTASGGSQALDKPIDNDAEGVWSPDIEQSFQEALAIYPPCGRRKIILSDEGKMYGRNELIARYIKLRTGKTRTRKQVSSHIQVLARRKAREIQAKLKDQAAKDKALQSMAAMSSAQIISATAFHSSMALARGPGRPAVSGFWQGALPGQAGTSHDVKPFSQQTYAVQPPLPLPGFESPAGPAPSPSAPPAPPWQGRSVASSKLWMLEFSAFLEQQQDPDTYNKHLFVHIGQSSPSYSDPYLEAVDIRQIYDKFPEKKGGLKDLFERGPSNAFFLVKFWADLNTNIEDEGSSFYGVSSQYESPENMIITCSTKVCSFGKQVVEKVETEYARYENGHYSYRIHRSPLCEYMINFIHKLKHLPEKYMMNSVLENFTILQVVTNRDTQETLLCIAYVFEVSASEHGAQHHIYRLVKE
TEAD1, sequence (P28347 whole entry, species assumed): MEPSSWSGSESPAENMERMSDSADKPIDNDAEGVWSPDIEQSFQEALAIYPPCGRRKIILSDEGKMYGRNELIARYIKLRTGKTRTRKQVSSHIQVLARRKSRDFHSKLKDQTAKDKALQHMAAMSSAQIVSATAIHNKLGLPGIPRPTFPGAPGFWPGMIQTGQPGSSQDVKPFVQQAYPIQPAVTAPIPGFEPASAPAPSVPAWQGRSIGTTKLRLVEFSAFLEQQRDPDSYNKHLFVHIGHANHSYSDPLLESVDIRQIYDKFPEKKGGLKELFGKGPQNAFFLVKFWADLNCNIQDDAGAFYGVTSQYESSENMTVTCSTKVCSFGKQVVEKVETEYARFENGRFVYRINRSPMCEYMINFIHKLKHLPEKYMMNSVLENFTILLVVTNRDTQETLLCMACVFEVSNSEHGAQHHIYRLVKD

| SMILES | TEAD4 ΔTm [1] | IC50 [2] | TEAD3 ΔTm [3] | TEAD2 ΔTm [4] | TEAD1 ΔTm [5] |
| --- | --- | --- | --- | --- | --- |
| CNC(=O)[C@@H]1C[C@H]1c1cc(Oc2ccc(C(F)(F)F)cc2)cc2c1NCCC2 (racemic) [Example 145] | 2.9 °C | 100 to 500 nM | 1.0 °C | 9.9 °C | 4.8 °C |
| Cn1cc2cc(Oc3ccc(C(F)(F)F)cc3)cc([C@@H]3C[C@H]3C(=O)NC#N)c2n1 (single isomer, unassigned) [Example 71] | 12.2 °C | 1000 to 30000 nM | 12.2 °C | 13.4 °C | 11.2 °C |
| CO[C@@H]1CN(C(=O)[C@@H]2C[C@H]2c2cc(Oc3ccc(C(F)(F)F)cc3)cc3cn(C)nc23)C[C@H]1O (single isomer, unassigned) [Example 112b] | 10.1 °C | < 100 nM | 1.9 °C | 10.2 °C | 8.4 °C |
| CC(C)NC(=O)[C@@H]1C[C@H]1c1cc(Oc2ccc(C(F)(F)F)cc2)cc2cn(C)nc12 (single isomer, unassigned) [Example 56a] | 2.6 °C | 500 to 1000 nM | −0.3 °C | 6.5 °C | 5.4 °C |
| CN(C)C(=O)[C@@H]1CC1c1cc(-c2ccc(C(F)(F)F)cc2)cc2c1cnn2C (mixture of isomers) [Example 26] | 1.7 °C | 100 to 500 nM | 0.1 °C | 1.9 °C | 1.7 °C |
| Cn1cc2cc(Oc3ccc(C(F)(F)F)cc3)cc([C@H]3C[C@@H]3C(=O)N3CC4CC3CC4O)c2n1 (single isomer, unassigned) [Example 103b] | 11.8 °C | < 100 nM | 10.4 °C | 12.0 °C | 9.2 °C |
| CNC(=O)[C@@H]1CC1c1cc(Oc2ccc(C(F)(F)F)cc2)cc2cn(C3CC3)nc12 (mixture of isomers) [Example 78] | 6.6 °C | 100 to 500 nM | 0.4 °C | 11.1 °C | 9.2 °C |
| Cn1cc2cc(Oc3ccc(C(F)(F)F)cc3)cc(C3C[C@H]3C(=O)N3C[C@@H]4C[C@H]3C[C@H]4O)c2n1 (single isomer, unassigned) [Example 103d] | 11.2 °C | < 100 nM | 10.3 °C | 11.6 °C | 9.5 °C |
| CNS(=O)(=O)[C@@H]1C[C@H]1c1cc(Oc2ccc(C(F)(F)F)cc2)cc2c1NCCC2 (racemic) [Example 146] | 6.7 °C | 100 to 500 nM | 1.0 °C | 12.0 °C | 5.5 °C |
| CNC(=O)[C@@H]1CC1c1cc(OC2CC3(C2)CC(F)(F)C3)cc2cn(C)nc12 (mixture of isomers) [Example 94] | 2.6 °C | 100 to 500 nM | 0.7 °C | 6.5 °C | 3.3 °C |
| COCCNC(=O)[C@@H]1C[C@H]1c1cc(-c2ccc(C(F)(F)F)cc2)cc2c1cnn2C (racemic) [Example 30] | 0.9 °C | 100 to 500 nM | 0.1 °C | 0.8 °C | 1.6 °C |

From patent US12103915B2, “TEAD inhibitors and methods of uses thereof” (Insilico Medicine IP Limited, priority 2022, dated 2024)
